Data: US12545637B2, “Extrahepatic targeted cationic lipid compound with high efficiency and low toxicity and its composition” (BEIJING YOUCARE KECHUANG PHARMACEUTICAL TECHNOLOGY CO., LTD., priority 2023, dated 2026)

What was measured:
293T cells [1] = assay: Cell transfection test of LNP formulation of eGFP-mRNA (optimization of preparation conditions); type: cell-based
Experimental: The cationic lipid compound YK-407 synthesized in Example 1 was dissolved in ethanol with DSPC (AVT (Shanghai) Pharmaceutical Technology Co., Ltd.), cholesterol (AVT (Shanghai) Pharmaceutical Technology Co., Ltd.) and DMG-PEG2000 according to a molar ratio of 49:10:39.5:1.5, respectively, to prepare an ethanol lipid solution. The ethanol lipid solution was quickly added to citrate buffer (pH=4-5) by ethanol injection method, and vortexed for 30s for later use. eGFP-mRNA was diluted in citrate buffer (pH=4-5) to give an aqueous mRNA solution. A certain volume of liposome solution and mRNA aqueous solution were used to prepare liposomes at weight ratios of total lipids to mRNA of 5:1, 10:1, 15:1, 20:1, 30:1 and 35:1, respectively. The mixtures were sonicated at 25° C. for 15 min (with an ultrasonic frequency of 40 kHz and an ultrasonic power of 800 W). The resulted liposomes were diluted to 10 times volume with PBS, and then ultrafiltered with a 300KDa ultrafiltration tube to remove ethanol. Then the volume was fixed to a certain volume with PBS to give an LNP formulation encapsulating eGFP-mRNA using cationic lipid YK-407/DSPC/cholesterol/DMG-PEG2000 (49:10:39.5:1.5 in molar percentage).
The LNP formulation encapsulating eGFP-mRNA was prepared according to the method in 1, wherein the molar ratios of cationic lipid YK-407 to neutral lipid DSPC were 1:1, 3:1, 3.5:1, 4:1, 4.5:1, 4.9:1, 10:1, 15:1 and 20:1.
The LNP formulation encapsulating eGFP-mRNA was prepared according to the method in 1, wherein the cationic lipid in the carrier was YK-407, and the molar ratios of the polymer-conjugated lipid DMG-PEG2000 to the carrier were 0.5%, 1.5%, 3.5%, 5%, 10% and 15%, respectively.
The LNP formulation encapsulating eGFP-mRNA was prepared according to the method in 1, wherein the molar ratios of cationic lipid YK-407, neutral lipid DSPC, structured lipid cholesterol and polymer-conjugated lipid DMG-PEG2000 were 75:5:15:5, 49:10:39.5:1.5, 45:10:43.5:1.5, 45:25:20:10, 40:10:48.5:1.5, 35:10:53.5:1.5 and 25:5:65:5, respectively.
Cell recovery and passage: 293T cells were recovered, cultured in a culture dish, and passaged to the required number of cells.
Seeding plate: The cells in the culture dish were digested and counted. Cells were spread in a 96-well plate at 10,000 cells per well and in a 12-well plate at 150,000 cells per well. Cells were cultured overnight until the cells adhered to the wall.
Cell transfection test: The LNP formulation containing 1.5 μg of eGFP-mRNA prepared in Example 2 (the cationic lipid in the carrier was YK-407) and the Lipofectamin 3000 formulation of eGFP-mRNA were added respectively to the cell culture medium of the 12-well plate, and further incubated for 24 hours. The transfection efficiency of different samples was then investigated according to the fluorescence intensity by observing with a fluorescence microscope.

293T cells [2] = assay: Cell survival rate assay (CCK-8); type: cell-based
Summary of the method: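 293T cells seeded at 10,000 cells/well, cultured overnight, then exposed 24 h to LNP carrying 1.5 μg Fluc-mRNA (cationic:neutral:structured:PEG-type lipid 49:10:39.5:1.5) or Lipofectamine 3000. Viability read by CCK-8, 1 h incubation, absorbance at 450 nm.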

293T cells [3] = assay: Fluorescent detection of Fluc-mRNA (cell transfection efficiency of LNP formulations); type: cell-based
293T cells [4] = assay: as above; type: cell-based; remark: listed apart in the source
[5] = Particle size and polydispersity index (PDI) of lipid nanoparticles by dynamic light scattering; type: physicochemical
Experimental: The particle size and polydispersity index (PDI) were determined by dynamic light scattering using Malvern laser particle size analyzer.
10 μL of the liposome solution was weighed, diluted to 1 mL with RNase-free deionized water, and added to the sample pool. Each sample was measured in triplicate. The measurement conditions were: […] scattering angle, and 25° C.

CCCCCCCCC(CCCCCCCC)OC(=O)CCCCCCCN(CCO)CCN(CCO)CCCCCCCC(=O)OC(CCCCCCCC)CCCCCCCC [YK-403, di(heptadecan-9-yl) 8, 8′-(ethane-1,2-diyl-bis((2-hydroxyethyl)azanediyl))dioctanoate]
transfection efficiency at different molar ratios of polymer-conjugated lipid DMG-PEG2000 to carrier (293T cells [1]; 0.5% to 15%): same results
transfection effect at different molar ratios of cationic lipid, neutral lipid, structured lipid and polymer-conjugated lipid (293T cells [1]; 75:5:15:5 to 25:5:65:5): same results
Cell survival rate (293T cells [2]; LNP with 1.5 μg Fluc-mRNA, 24 hours, CCK-8): 70.76%
cell survival rate higher than ALC-0315 (293T cells [2]; difference vs ALC-0315): 23.55%
cell survival rate higher than HIMA (293T cells [2]; difference vs HIMA (HHMA)): 6.49%
cell survival rate higher than Lipofectamine 3000 (293T cells [2]; difference vs Lipofectamine 3000): 49.10%
cell survival rate higher than SM-102 (293T cells [2]; difference vs SM-102): 2.86%
cell survival rate higher than YK-404 (293T cells [2]; difference vs YK-404): 28.64%
cell survival rate higher than YK-405 (293T cells [2]; difference vs YK-405): 28.90%
cell survival rate higher than YK-406 (293T cells [2]; difference vs YK-406): 45.80%
cell survival rate higher than YK-408 (293T cells [2]; difference vs YK-408): 28.45%
cell survival rate higher than YK-409 (293T cells [2]; difference vs YK-409): 24.65%
cell survival rate higher than YK-410 (293T cells [2]; difference vs YK-410): 25.84%
cell survival rate higher than YK-411 (293T cells [2]; difference vs YK-411): 54.43%
cell survival rate higher than YK-412 (293T cells [2]; difference vs YK-412): 16.62%
cell survival rate higher than YK-413 (293T cells [2]; difference vs YK-413): 23.56%
cell survival rate higher than YK-414 (293T cells [2]; difference vs YK-414): 42.01%
cell survival rate higher than YK-415 (293T cells [2]; difference vs YK-415): 9.60%
cell survival rate higher than YK-416 (293T cells [2]; difference vs YK-416): 29.79%
cell survival rate higher than YK-417 (293T cells [2]; difference vs YK-417): 49.42%
cell survival rate higher than YK-418 (293T cells [2]; difference vs YK-418): 49.71%
cell survival rate higher than YK-419 (293T cells [2]; difference vs YK-419): 31.84%
cell survival rate higher than YK-420 (293T cells [2]; difference vs YK-420): 35.17%
cell survival rate higher than YK-421 (293T cells [2]; difference vs YK-421): 35.05%
cell survival rate higher than YK-424 (293T cells [2]; difference vs YK-424): 42.83%
cell survival rate higher than compound 21 (293T cells [2]; difference vs compound 21): 2.92%
cell survival rate higher than compound 23 (293T cells [2]; difference vs compound 23): 1.65%
cytotoxicity reduced compared with YK-411 (293T cells [2]; rounded summary statement vs YK-411): 50%
Relative light unit (RLU) (293T cells [3]; LNP with 0.3 μg Fluc-mRNA, 96-well plate, 24 hours): 5249304 RLU
cell transfection efficiency, times that of YK-415 (293T cells [3]; ratio vs YK-415): 17.61
cell transfection efficiency, times that of YK-417 (293T cells [3]; ratio vs YK-417): 44.76
cell transfection efficiency, times that of YK-418 (293T cells [3]; ratio vs YK-418): 47.18
cell transfection efficiency, times that of YK-424 (293T cells [3]; ratio vs YK-424): 1.82
RLU value, times that of compound 21 (293T cells [3]; ratio vs compound 21): 3.47
RLU value, times that of compound 23 (293T cells [3]; ratio vs compound 23): 3.74
RLU value, times that of ALC-0315 (293T cells [4]; ratio vs ALC-0315): 2.40
RLU value, times that of HHMA (293T cells [4]; ratio vs HHMA): 2.52
RLU value, times that of Lipofectamine 3000 (293T cells [4]; ratio vs Lipofectamine 3000): 4.37
RLU value, times that of YK-009 (293T cells [4]; ratio vs YK-009): 1.02
RLU value, times that of YK-405 (293T cells [4]; ratio vs YK-405): 1.64
RLU value, times that of YK-406 (293T cells [4]; ratio vs YK-406): 67.08
RLU value, times that of YK-408 (293T cells [4]; ratio vs YK-408): 3.56
RLU value, times that of YK-409 (293T cells [4]; ratio vs YK-409): 7.84
RLU value, times that of YK-410 (293T cells [4]; ratio vs YK-410): 12.87
cell transfection efficiency, times that of YK-412 (293T cells [4]; ratio vs YK-412): 1.56
cell transfection efficiency, times that of YK-413 (293T cells [4]; ratio vs YK-413): 3.81
cell transfection efficiency, times that of YK-414 (293T cells [4]; ratio vs YK-414): 11.82
cell transfection efficiency, times that of YK-416 (293T cells [4]; ratio vs YK-416): 1.32
cell transfection efficiency, times that of YK-419 (293T cells [4]; ratio vs YK-419): 1.66
cell transfection efficiency, times that of YK-420 (293T cells [4]; ratio vs YK-420): 1.31
cell transfection efficiency, times that of YK-421 (293T cells [4]; ratio vs YK-421): 11.25
PDI ([5]; LNP formulation of the cationic lipid, 25° C.): 16.5%
Particle size ([5]; LNP formulation of the cationic lipid/DSPC/cholesterol/DMG-PEG2000 49:10:39.5:1.5, 25° C.): 163 nm
